SMILES strings stand for the structures. A value given as a limit tells only on which side of the number the result lay.

One series addresses T1, TRKA (Homo sapiens, UniProt P04629).
T1 construct: purchased life technologies PV3144
The series is described as follows: Z′-LYTE kinase activity assay, TRKA. The class given is biochemical. The note with it: ATP 400 uM. In short, it runs like this: (§1)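 IC50 values were fitted to inhibition calculated from the emission-ratio-based phosphorylation ratio relative to negative control, across a compound concentration gradient.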

In a further series the target is T2, TRKB (Homo sapiens, UniProt Q16620).
T2 construct: purchased life technologies PV3616
T2 sequence (Q16620 32-822): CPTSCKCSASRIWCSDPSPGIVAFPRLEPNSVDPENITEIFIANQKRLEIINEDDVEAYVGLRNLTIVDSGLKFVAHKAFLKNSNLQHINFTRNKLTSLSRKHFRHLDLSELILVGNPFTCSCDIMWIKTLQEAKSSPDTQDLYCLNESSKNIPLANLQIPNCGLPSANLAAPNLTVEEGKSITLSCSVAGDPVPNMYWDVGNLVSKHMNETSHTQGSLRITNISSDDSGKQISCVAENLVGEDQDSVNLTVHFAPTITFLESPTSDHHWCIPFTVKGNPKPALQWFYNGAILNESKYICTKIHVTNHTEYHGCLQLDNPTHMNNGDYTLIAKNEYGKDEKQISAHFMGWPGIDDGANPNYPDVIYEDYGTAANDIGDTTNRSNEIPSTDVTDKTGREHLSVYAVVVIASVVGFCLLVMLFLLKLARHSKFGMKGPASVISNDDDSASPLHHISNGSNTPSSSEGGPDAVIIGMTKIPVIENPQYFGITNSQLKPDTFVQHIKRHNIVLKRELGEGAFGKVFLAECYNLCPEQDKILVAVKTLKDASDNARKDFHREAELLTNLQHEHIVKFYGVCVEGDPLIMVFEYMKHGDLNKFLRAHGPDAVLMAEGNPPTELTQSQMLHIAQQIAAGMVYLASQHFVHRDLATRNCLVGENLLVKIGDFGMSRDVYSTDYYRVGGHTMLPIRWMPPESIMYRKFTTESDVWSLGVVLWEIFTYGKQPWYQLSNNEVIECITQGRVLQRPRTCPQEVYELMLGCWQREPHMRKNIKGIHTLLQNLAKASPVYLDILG
Description: Z′-LYTE kinase activity assay, TRKB. The class given is biochemical. Particulars: ATP 25 uM. In short, it runs like this: as §1

In a further series the target is T3, BaF3-ETV6-NTRK2 (Homo sapiens, UniProt Q16620).
T3 construct: fused on or other part: P41212 (Transcription factor ETV6)
T3 sequence (Q16620 538-822 limits assumed): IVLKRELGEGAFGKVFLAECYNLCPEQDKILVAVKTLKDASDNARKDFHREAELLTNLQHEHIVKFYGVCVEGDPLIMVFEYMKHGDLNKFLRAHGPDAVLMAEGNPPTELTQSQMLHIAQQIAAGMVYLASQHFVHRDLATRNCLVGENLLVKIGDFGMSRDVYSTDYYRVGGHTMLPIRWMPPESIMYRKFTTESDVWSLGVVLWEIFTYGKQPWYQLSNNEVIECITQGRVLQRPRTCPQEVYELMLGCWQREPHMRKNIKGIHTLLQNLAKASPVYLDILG
Description: Cell proliferation inhibition (CCK-8), BaF3-ETV6-NTRK2 stable strain. The class given is cell-based, mouse. The note with it: BaF3-ETV6-NTRK2, 72 hours. The gist of the method:
(§2)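 Ba/F3 cells stably electroporated with ETV6-NTRK3, CD74-NTRK1 or ETV6-NTRK2, selected with G418 and grown without IL3, then cloned by limiting dilution.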

A further series deals with T4, BaF3-CD74-NTRK1 (Homo sapiens, UniProt P04629).
T4 construct: fused on or other part: P04233 (HLA class II histocompatibility antigen gamma chain)
T4 sequence (P04629 510-796 limits assumed): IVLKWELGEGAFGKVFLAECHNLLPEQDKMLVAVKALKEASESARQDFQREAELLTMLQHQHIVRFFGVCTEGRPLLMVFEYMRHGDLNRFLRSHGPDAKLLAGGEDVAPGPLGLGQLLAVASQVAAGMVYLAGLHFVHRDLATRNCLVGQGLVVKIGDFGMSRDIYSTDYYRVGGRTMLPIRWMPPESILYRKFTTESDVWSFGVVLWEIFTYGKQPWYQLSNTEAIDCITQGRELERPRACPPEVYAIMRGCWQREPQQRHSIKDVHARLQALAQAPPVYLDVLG
The series is described as follows: Cell proliferation inhibition (CCK-8), BaF3-CD74-NTRK1 stable strain. The class given is cell-based, mouse. Particulars: BaF3-CD74-NTRK1, 72 hours. In short, it runs like this: as §2

Another series deals with T5, TRKC (Homo sapiens, UniProt Q16288).
T5 construct: purchased life technologies PV3617
T5 sequence (Q16288 32-839): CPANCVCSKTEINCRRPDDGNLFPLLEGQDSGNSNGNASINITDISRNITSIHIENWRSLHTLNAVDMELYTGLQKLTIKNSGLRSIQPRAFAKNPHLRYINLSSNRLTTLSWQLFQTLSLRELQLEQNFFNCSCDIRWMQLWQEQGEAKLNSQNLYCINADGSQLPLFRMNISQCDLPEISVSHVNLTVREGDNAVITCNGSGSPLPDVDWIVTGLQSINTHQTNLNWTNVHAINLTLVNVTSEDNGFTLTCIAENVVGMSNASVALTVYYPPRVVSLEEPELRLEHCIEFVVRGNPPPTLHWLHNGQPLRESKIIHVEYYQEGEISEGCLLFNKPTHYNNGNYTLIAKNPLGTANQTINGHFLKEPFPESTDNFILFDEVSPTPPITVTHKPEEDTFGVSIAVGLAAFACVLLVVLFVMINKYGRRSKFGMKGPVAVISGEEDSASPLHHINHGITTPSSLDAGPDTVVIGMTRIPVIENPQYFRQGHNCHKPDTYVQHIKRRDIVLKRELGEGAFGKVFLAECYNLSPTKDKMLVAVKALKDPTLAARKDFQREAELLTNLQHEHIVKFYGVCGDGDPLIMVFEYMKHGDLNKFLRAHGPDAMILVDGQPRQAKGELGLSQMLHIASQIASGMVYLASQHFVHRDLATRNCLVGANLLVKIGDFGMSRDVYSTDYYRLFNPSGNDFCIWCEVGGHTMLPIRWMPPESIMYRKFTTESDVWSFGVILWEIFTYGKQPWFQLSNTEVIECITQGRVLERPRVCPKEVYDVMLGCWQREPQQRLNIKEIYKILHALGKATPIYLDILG
Description: Z′-LYTE kinase activity assay, TRKC. The class given is biochemical. Particulars: ATP 50 uM. The gist of the method:
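Recombinant TRK kinase tested in a Z′-LYTE FRET assay with 2 μM Tyr 01 peptide substrate in 50 mM HEPES pH 7.5, 10 mM MgCl2, 1 mM EGTA, 0.01% BRIJ-35. IC50 obtained by curve fitting.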

The next series deals with T6, BaF3-ETV6-NTRK3 (Homo sapiens, UniProt Q16288).
T6 construct: fused on or other part: P41212 (Transcription factor ETV6)
T6 sequence (Q16288 whole entry, the tested form may be a part): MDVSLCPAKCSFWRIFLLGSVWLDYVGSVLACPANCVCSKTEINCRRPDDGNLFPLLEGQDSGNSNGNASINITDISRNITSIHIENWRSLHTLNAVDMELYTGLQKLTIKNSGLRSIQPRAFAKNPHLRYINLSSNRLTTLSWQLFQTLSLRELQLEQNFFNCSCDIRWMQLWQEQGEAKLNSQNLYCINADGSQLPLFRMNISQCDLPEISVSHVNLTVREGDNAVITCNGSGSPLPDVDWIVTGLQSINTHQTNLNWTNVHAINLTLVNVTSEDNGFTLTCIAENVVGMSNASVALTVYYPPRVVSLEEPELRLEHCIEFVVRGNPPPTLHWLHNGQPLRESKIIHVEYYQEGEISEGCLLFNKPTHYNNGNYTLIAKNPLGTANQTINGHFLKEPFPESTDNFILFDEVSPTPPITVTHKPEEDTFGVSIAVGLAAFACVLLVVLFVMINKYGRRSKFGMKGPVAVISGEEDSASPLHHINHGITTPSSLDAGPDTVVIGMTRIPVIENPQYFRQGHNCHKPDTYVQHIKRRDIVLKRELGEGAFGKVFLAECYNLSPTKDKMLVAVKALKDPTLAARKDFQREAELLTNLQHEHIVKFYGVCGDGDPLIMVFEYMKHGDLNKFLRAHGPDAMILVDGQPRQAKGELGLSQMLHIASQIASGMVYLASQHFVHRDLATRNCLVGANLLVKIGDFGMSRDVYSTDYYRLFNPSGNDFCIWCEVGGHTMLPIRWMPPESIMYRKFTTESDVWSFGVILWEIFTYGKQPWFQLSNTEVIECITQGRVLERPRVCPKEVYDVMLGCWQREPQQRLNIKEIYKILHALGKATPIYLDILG
Description: Cell proliferation inhibition (CCK-8), BaF3-ETV6-NTRK3 stable strain. The class given is cell-based, mouse. Particulars: BaF3-ETV6-NTRK3, 72 hours. The gist of the method: as §2

Series [1] can be described thus: Rat hepatocyte stability experiment. The class given is in vitro ADME. Here is the method:
In William medium E, dilute the 37° C. rat hepatocyte suspension to an appropriate density (viable cell density=2×10^6 cells/mL). In addition, a 2× quantification solution (the concentration of the test compound was 2 μM) was additionally prepared in William's medium E. The hepatocyte solution and 2× quantification solution were preheated in a water bath of 37° C. 40 µL of the preheated hepatocyte solution (2×10^6 cells/mL) was added into the designated wells for 5, 15, 30, 60, and 120 min, and add 40 µL of the preheated 2× quantification solution and start timing. An assay plate was placed in a 37° C., 5% CO2 incubator with shaking at 110 rpm. At 5, 15, 30, 60, and 120 minutes, 240 μL of ACN containing IS was added to each well. The plate was then sealed and stored in a −35° C. freezer. After collecting at all time points, the plate was shaken for 2 minutes and then centrifuging was performed for 15 minutes at 6000 rmp. 100 μL of supernatant from each well was transferred to a 96-well sample plate containing 100 μL of water for LC/MS analysis, determination of compound concentrations, calculation of rate constants and half-lives.

T1 sequence (P04629 440-796 limits assumed): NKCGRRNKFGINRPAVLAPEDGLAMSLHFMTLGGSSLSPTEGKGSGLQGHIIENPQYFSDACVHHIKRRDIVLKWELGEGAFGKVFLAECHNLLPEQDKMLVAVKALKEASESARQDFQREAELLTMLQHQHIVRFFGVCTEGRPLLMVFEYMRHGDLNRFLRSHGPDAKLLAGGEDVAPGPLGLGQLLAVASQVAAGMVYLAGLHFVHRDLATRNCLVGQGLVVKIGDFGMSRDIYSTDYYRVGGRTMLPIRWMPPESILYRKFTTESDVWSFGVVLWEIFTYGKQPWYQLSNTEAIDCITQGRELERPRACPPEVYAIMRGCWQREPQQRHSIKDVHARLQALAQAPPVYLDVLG

By IC50 is commonly meant the midpoint of a concentration-inhibition curve. Lower therefore signals greater potency in that assay. For `CN(c1cc(F)cc(F)c1)c1ccc2[nH]nc(/C=C/c3ccccn3)c2c1` [DYX-139, (E)-N-(3,5-difluorophenyl)-N-methyl-3-(2-(pyridin-2-yl)vinyl)-1H-indazol-5-amine], the IC50 on TRKA is 15 nM; against TRKB, 25.7 nM; against BaF3-ETV6-NTRK2, 1790 nM; against BaF3-CD74-NTRK1, 2360 nM; against TRKC, 18.1 nM; against BaF3-ETV6-NTRK3, 1270 nM.
Regarding `O=S(=O)(c1cc(F)cc(F)c1)c1cc2c(/C=C/c3ccccn3)n[nH]c2cn1` [DYX-149, (E)-5-((3,5-difluorophenyl)sulfonyl)-3-(2-(pyridin-2-yl)vinyl)-1H-pyrazolo[3,4-c]pyridine], the IC50 was 318 nM at TRKA; above 1000 nM against TRKB; 2460 nM against BaF3-ETV6-NTRK2; 3080 nM against BaF3-CD74-NTRK1; 155 nM against TRKC; 3100 nM against BaF3-ETV6-NTRK3.
Turning to `O=S(=O)(c1cc(F)cc(F)c1)c1ccc2[nH]nc(/C=C/c3ccccn3)c2n1` [DYX-150, (E)-5-((3,5-difluorophenyl)sulfonyl)-3-(2-(pyridin-2-yl)vinyl)-1H-pyrazolo[4,3-b]pyridine], the IC50 against TRKA came to 3.3 nM; on TRKB, 9.4 nM; against BaF3-ETV6-NTRK2, 163 nM; against BaF3-CD74-NTRK1, 65.2 nM; at TRKC, 4.1 nM; on BaF3-ETV6-NTRK3, 120 nM.
As for `O=C(Nc1ccc2[nH]nc(/C=C/c3ccccn3)c2c1)c1cc(F)cc(F)c1` [DYX-164, (E)-3,5-difluoro-N-(3-(2-(pyridin-2-yl)vinyl)-1H-indazol-5-yl)benzamide], the IC50 on TRKA is 196 nM; on TRKB, 741 nM; against BaF3-ETV6-NTRK2, 2580 nM; against BaF3-CD74-NTRK1 it was 1930 nM; on TRKC, 226 nM; against BaF3-ETV6-NTRK3, 2240 nM.
In the case of `Fc1ccc(F)c([C@H]2CCCN2c2ccc3[nH]nc(/C=C/c4ccccn4)c3c2)c1` [DYX-170, (R,E)-5-(2-(2,5-difluorophenyl)pyrrolidin-1-yl)-3-(2-(pyridin-2-yl)vinyl)-1H-indazole], the IC50 was 8.1 nM against TRKA; 18.4 nM against TRKB; 242 nM against BaF3-ETV6-NTRK2; 99.4 nM against BaF3-CD74-NTRK1; 1.9 nM against TRKC; 167 nM against BaF3-ETV6-NTRK3.
On to `O=C(Nc1cc(F)cc(F)c1)c1ccc2[nH]nc(/C=C/c3ccccn3)c2c1` [DYX-171, (E)-N-(3,5-difluorophenyl)-3-(2-(pyridin-2-yl)vinyl)-1H-indazole-5-carboxamide], for which the IC50 at TRKA was 577 nM; against TRKB, above 1000 nM; at BaF3-ETV6-NTRK2, 2730 nM; against BaF3-CD74-NTRK1 it was 8040 nM; on TRKC it was 532 nM; at BaF3-ETV6-NTRK3 it was 2640 nM.
Take `O=C(Nc1cc(F)cc(F)c1)Nc1ccc2[nH]nc(/C=C/c3ccccn3)c2c1` [DYX-174, (E)-1-(3,5-difluorophenyl)-3-(3-(2-(pyridin-2-yl)vinyl)-1H-indazol-5-yl)urea]: the IC50 against TRKA was found to be 46.8 nM; at TRKB, 242 nM; on BaF3-ETV6-NTRK2, 1910 nM; at BaF3-CD74-NTRK1, 1180 nM; against TRKC, 94.1 nM; against BaF3-ETV6-NTRK3 it was 623 nM.
As for `Fc1cc(F)cc(OCc2ccc3[nH]nc(/C=C/c4ccccn4)c3c2)c1` [DYX-176], the IC50 stood at 7.1 nM against TRKA; 21.4 nM against TRKB; 2520 nM on BaF3-ETV6-NTRK2; 627 nM against BaF3-CD74-NTRK1; 6.5 nM at TRKC; 1040 nM against BaF3-ETV6-NTRK3.
For the compound `Fc1cc(F)cc(CCc2ccc3[nH]nc(/C=C/c4ccccn4)c3c2)c1` [DYX-180, (E)-5-(3,5-difluorophenethyl)-3-(2-(pyridin-2-yl)vinyl)-1H-indazole], the half-maximal inhibitory concentration (IC50) was found to be 3.9 nM at TRKA; 9.9 nM against TRKB; 694 nM on BaF3-ETV6-NTRK2; 498 nM at BaF3-CD74-NTRK1; 4.7 nM against TRKC; 415 nM at BaF3-ETV6-NTRK3.
In the case of `Fc1cc(F)cc(CNc2ccc3[nH]nc(/C=C/c4ccccn4)c3c2)c1` [DYX-185, (E)-N-(3,5-difluorobenzyl)-3-(2-(pyridin-2-yl)vinyl)-1H-indazol-5-amine], the IC50 against TRKA came to 1.7 nM; at TRKB it was 10 nM; on BaF3-ETV6-NTRK2, 43.9 nM; against BaF3-CD74-NTRK1 it was 32.6 nM; against TRKC, 1.9 nM; against BaF3-ETV6-NTRK3, 23.7 nM.
On to `CN(Cc1cc(F)cc(F)c1)c1ccc2[nH]nc(/C=C/c3ccccn3)c2c1` [DYX-187, (E)-N-(3,5-difluorobenzyl)-N-methyl-3-(2-(pyridin-2-yl)vinyl)-1H-indazol-5-amine], for which the IC50 on TRKA turned out to be 18.7 nM; at TRKB it was 20.3 nM; against BaF3-ETV6-NTRK2, 625 nM; on BaF3-CD74-NTRK1 it was 172 nM; at TRKC, 6.2 nM; on BaF3-ETV6-NTRK3, 278 nM.
In the case of `Fc1cc(F)cc(NCc2ccc3[nH]nc(/C=C/c4ccccn4)c3c2)c1` [DYX-191, (E)-3,5-difluoro-N-((3-(2-(pyridin-2-yl)vinyl)-1H-indazol-5-yl)methyl)aniline], the IC50 against TRKA worked out at 9.1 nM; at TRKB, 37.1 nM; against BaF3-ETV6-NTRK2, 667 nM; at BaF3-CD74-NTRK1 it was 264 nM; against TRKC it was 16.6 nM; against BaF3-ETV6-NTRK3 it was 503 nM.
For the compound `CN(Cc1ccc2[nH]nc(/C=C/c3ccccn3)c2c1)c1cc(F)cc(F)c1` [DYX-193, (E)-3,5-difluoro-N-methyl-N-((3-(2-(pyridin-2-yl)vinyl)-1H-indazol-5-yl)methyl)aniline], the IC50 on TRKA is 45.4 nM; against TRKB it was 120 nM; on BaF3-ETV6-NTRK2, 316 nM; at BaF3-CD74-NTRK1, 136 nM; on TRKC, 33.2 nM; against BaF3-ETV6-NTRK3 it was 83 nM.
Turning to `Fc1cc(F)cc(Cc2ccc3[nH]nc(/C=C/c4ccncc4)c3c2)c1` [DYX-215, (E)-5-(3,5-difluorobenzyl)-3-(2-(pyridin-4-yl)vinyl)-1H-indazole], the IC50 against TRKA came to 3.3 nM; on TRKB it was 22.4 nM; on BaF3-ETV6-NTRK2, 170 nM; at BaF3-CD74-NTRK1, 147 nM; against TRKC, 20.9 nM; on BaF3-ETV6-NTRK3, 110 nM.
For `Fc1ccc(F)c(CNc2ccc3[nH]nc(/C=C/c4ccccn4)c3c2)c1` [DYX-216A, (E)-N-(2,5-difluorobenzyl)-3-(2-(pyridin-2-yl)vinyl)-1H-indazol-5-amine], the IC50 at TRKA was determined as 1.1 nM; against TRKB, 6.5 nM; against BaF3-ETV6-NTRK2 it was 8.7 nM; on BaF3-CD74-NTRK1 it was 12.6 nM; against TRKC, 1.3 nM; on BaF3-ETV6-NTRK3, 7.2 nM.
Take `C[C@@H](Nc1ccc2[nH]nc(/C=C/C(=O)N3CC[C@H](O)C3)c2c1)c1cc(F)cc(F)c1` [DYX-303, (E)-3-(5-(((R)-1-(3,5-difluorophenyl)ethyl)amino)-1H-indazol-3-yl)-1-((S)-3-hydroxylpyrrolidin-1-yl)prop-2-en-1-one]: the IC50 was 3 nM at TRKA; 4.8 nM on TRKB; 20 nM at BaF3-ETV6-NTRK2; 10.1 nM against BaF3-CD74-NTRK1; 0.8 nM against TRKC; 7.1 nM against BaF3-ETV6-NTRK3.
In the case of `Fc1cccc(CNc2ccc3[nH]nc(/C=C/c4ccccn4)c3c2)c1` [DYX-305, (E)-N-(3-fluorobenzyl)-3-(2-(pyridin-2-yl)vinyl)-1H-indazol-5-amine], the IC50 against TRKA is 1.8 nM; against TRKB it was 9.5 nM; on BaF3-ETV6-NTRK2, 51.3 nM; against BaF3-CD74-NTRK1, 28.2 nM; against TRKC, 1.3 nM; at BaF3-ETV6-NTRK3 it was 22.9 nM.
As a reminder, the half-life is the time needed for the level to fall by half in the phase considered. Low values mean rapid decline, high ones slow decline. As for `C[C@]12CC[C@H]3[C@@H](CCC4=CC(=O)CC[C@@]43C)[C@@H]1CC[C@@H]2O` [Testosterone, reference compound], the “Residual percentage (%) 0 min” value in series [1] (rat hepatocytes, 0 min, average value) is reported as 100.00%. For the same compound, the “Residual percentage (%) 5 min” value in series [1] (rat hepatocytes, 5 min, average value) was found to be 21.21%. Besides, in series [1] (rat hepatocytes, 15 min, average value), the “Residual percentage (%) 15 min” value was determined as 5.78%. In addition, the “Residual percentage (%) 30 min” value in series [1] (rat hepatocytes, 30 min, average value) is reported as “BQL”. The “Residual percentage (%) 60 min” value in series [1] (rat hepatocytes, 60 min, average value) is given as “BQL”. Moreover, the “Residual percentage (%) 120 min” value in series [1] (rat hepatocytes, 120 min, average value) is reported as “BQL”. The compound also registered a half-life at 1 μM in series [1] (rat, rat hepatocytes (suspension)) of 2.23 min.

(Values after patent publication US20220281821A1, “INDAZOLE COMPOUNDS AND THEIR PHARMACEUTICAL COMPOSITIONS” (Jinan University, priority 2019, published 2022).)
